Assay results: the supplement of paper PMC10307832

Columns and labels:
Assay in all cases: relative viability (nuclei count vs DMSO), 5 days (fraction); higher = more cells survive
BX 795 + Linsitinib = compound: O=C(NCCCNc1nc(Nc2cccc(NC(=O)N3CCCC3)c2)ncc1I)c1cccs1 [BX 795] + C[C@]1(O)C[C@@H](c2nc(-c3ccc4ccc(-c5ccccc5)nc4c3)c3c(N)nccn32)C1 [Linsitinib] (partner 1 µM)
Outline: (§1)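 For relative viability, nuclei counts in treated wells were divided by those in vehicle wells. Lung cancer cell lines had been pin-tool dosed in 1536-well plates the day after seeding and cultured for 5 days, then fixed and stained in one step (final 0.05% Triton X-100, 1% formaldehyde, 1 ug/ml Hoechst) and imaged at 4×. Doses were one drug alone or a fixed anchor-drug dose plus five library-drug doses (not always all listed) in √10 steps, and values are duplicate-plate medians.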

BX 795 + Foretinib = compound: O=C(NCCCNc1nc(Nc2cccc(NC(=O)N3CCCC3)c2)ncc1I)c1cccs1 [BX 795] + COc1cc2c(Oc3ccc(NC(=O)C4(C(=O)Nc5ccc(F)cc5)CC4)cc3F)ccnc2cc1OCCCN1CCOCC1 [Foretinib] (partner 0.25 µM)
Outline: as §1

BX 795 + Tozasertib = compound: O=C(NCCCNc1nc(Nc2cccc(NC(=O)N3CCCC3)c2)ncc1I)c1cccs1 [BX 795] + Cc1cc(Nc2cc(N3CCN(C)CC3)nc(Sc3ccc(NC(=O)C4CC4)cc3)n2)n[nH]1 [Tozasertib] (partner 0.1 µM)
Outline: as §1

BX 795 + AZD7762 = compound: O=C(NCCCNc1nc(Nc2cccc(NC(=O)N3CCCC3)c2)ncc1I)c1cccs1 [BX 795] + NC(=O)Nc1cc(-c2cccc(F)c2)sc1C(=O)N[C@H]1CCCNC1 [AZD7762] (partner 0.2 µM)
Outline: as §1

BX 795 + Olaparib = compound: O=C(NCCCNc1nc(Nc2cccc(NC(=O)N3CCCC3)c2)ncc1I)c1cccs1 [BX 795] + O=C(c1cc(Cc2n[nH]c(=O)c3ccccc23)ccc1F)N1CCN(C(=O)C2CC2)CC1 [Olaparib] (partner 8 µM)
Outline: as §1

| Cell Line | relative viability (BX 795 + Linsitinib; first compound 0.04 µM) | relative viability (BX 795 + Linsitinib; first compound 0.1265 µM) | relative viability (BX 795 + Linsitinib; first compound 0.4 µM) | relative viability (BX 795 + Linsitinib; first compound 1.265 µM) | relative viability (BX 795 + Foretinib; first compound 0.04 µM) | relative viability (BX 795 + Foretinib; first compound 0.1265 µM) | relative viability (BX 795 + Foretinib; first compound 0.4 µM) | relative viability (BX 795 + Foretinib; first compound 1.265 µM) | relative viability (BX 795 + Tozasertib; first compound 0.04 µM) | relative viability (BX 795 + Tozasertib; first compound 0.1265 µM) | relative viability (BX 795 + Tozasertib; first compound 0.4 µM) | relative viability (BX 795 + Tozasertib; first compound 1.265 µM) | relative viability (BX 795 + AZD7762; first compound 0.04 µM) | relative viability (BX 795 + AZD7762; first compound 0.1265 µM) | relative viability (BX 795 + AZD7762; first compound 0.4 µM) | relative viability (BX 795 + AZD7762; first compound 1.265 µM) | relative viability (BX 795 + Olaparib; first compound 0.04 µM) | relative viability (BX 795 + Olaparib; first compound 0.1265 µM) | relative viability (BX 795 + Olaparib; first compound 0.4 µM) | relative viability (BX 795 + Olaparib; first compound 1.265 µM) |
| --- | --- | --- | --- | --- | --- | --- | --- | --- | --- | --- | --- | --- | --- | --- | --- | --- | --- | --- | --- | --- |
| 201T | 1.06 | 1.08 | 1.04 | 1.03 | 1.2 | 1.13 | 0.952 | 1.21 | 1.06 | 0.918 | 1.11 | 0.963 | 0.6 | 0.603 | 0.597 | 0.628 | 0.657 | 0.851 | 0.899 | 0.856 |
| A549 | 0.579 | 0.646 | 0.574 | 0.552 | 0.911 | 1.02 | 1.03 | 0.647 |  |  |  |  |  |  |  |  | 0.495 | 0.379 | 0.279 | 0.219 |
| A-427 | 1.17 | 1.13 | 1.15 | 0.982 | 0.98 | 1.12 | 1.07 | 0.897 | 0.227 | 0.148 | 0.179 | 0.136 | 0.774 | 0.843 | 0.694 | 0.647 | 0.826 | 0.68 | 0.672 | 0.641 |
| ABC-1 | 0.849 | 0.914 | 0.765 | 0.549 | 1.03 | 1.05 | 0.929 | 0.601 | 0.193 | 0.151 | 0.145 | 0.148 | 0.83 | 0.924 | 0.745 | 0.838 | 1.07 |  | 0.962 | 0.526 |
| BEN | 0.996 | 0.944 | 0.842 | 0.864 | 0.54 | 0.645 | 0.818 | 0.803 | 0.606 | 0.447 | 0.523 | 0.44 | 0.659 | 0.653 | 0.587 | 0.647 | 1.19 | 1.34 | 0.797 | 1.04 |
| CAL-12T | 0.833 | 0.901 | 0.723 | 0.374 | 1.16 | 1.13 | 0.873 | 1.07 | 0.323 | 0.288 | 0.298 | 0.263 | 0.555 | 0.617 | 0.609 | 0.584 | 0.877 | 0.769 | 0.725 | 0.41 |
| COR-L23 | 0.909 | 0.827 | 0.961 | 0.4 | 1.07 | 0.97 | 0.909 | 0.715 | 0.201 | 0.186 | 0.168 | 0.111 |  |  |  |  | 0.328 | 0.311 | 0.247 | 0.166 |
